Test results taken from US20250041312A1, “METHODS OF ADMINISTERING A MODULATOR OF HEMOGLOBIN” (Global Blood Therapeutics, Inc., priority 2021, published 2025).
Marks after values point to notes of the source that are not given here.

What was measured:
[1] = SCD cohort clinical measures of anemia and hemolysis (Hb, hematocrit, hemolysis markers); format: in vivo, human
Method: (§1) After a washout period of at least 56 days (so that elimination PK of Compound I could be assessed), the patients were administered a loading dose of 300 mg per day of Compound I for one day followed by 200 mg per day of Compound I for one day, and then were administered a maintenance dose of 50 mg per day of Compound I for five weeks (“MAD-1 Cohort”). The same patients then received another loading dose of 500 mg per day of Compound I for one day followed by 400 mg per day of Compound I for one day, and then were administered another maintenance dose of 100 mg per day of Compound I for three weeks (“MAD-2 Cohort”). The total treatment period of the MAD-1 Cohort and MAD-2 Cohort was 8 weeks.
(§2) Primary endpoints were safety and tolerability. Key secondary endpoints included PK and the relationship between time-matched Compound I concentrations and changes in clinical measures of anemia and hemolysis from baseline.
(§3) Following the conclusion of the MAD-2 study and a washout period of about 8 months, the selected patients (n=4) were administered a loading dose of 300 mg BID for 4 days, followed thereafter by a maintenance dose of 150 mg QD (MAD-3 Cohort).
Primary endpoints were safety and tolerability. Key secondary endpoints included PK and the relationship between time-matched Compound I concentrations and the changes in clinical measures of anemia and hemolysis from baseline.

[2] = SCD cohort safety (TEAEs); format: in vivo, human
Method: as §1, §2
The majority of treatment emergent adverse events were grade 1 or 2 and unrelated to study drug.
as §3

[3] = MAD-3 (150 mg QD) week 6, SCD patient 0003 (did not adhere to regimen)
[4] = MAD-3 (150 mg QD) week 6, SCD patient 0004
[5] = MAD-3 (150 mg QD) week 6, SCD patient 0005
[6] = six SCD patients, 8 weeks (MAD-1 then MAD-2)
[7] = MAD-3 SCD patients N=4 (300 mg BID x 4 days, then 150 mg QD)
[8] = SCD N=6, single dose and multiple dose portions (Table 13A)
[9] = SCD n=6, single dose, MAD-1 (50 mg qd) and MAD-2 (100 mg qd) (Table 13B)

## O=Cc1c(O)cccc1OC[C@@H]1COCCN1C(=O)c1cccnc1CCO [Compound I, (S)-2-hydroxy-6-((4-(2-(2-hydroxyethyl)nicotinoyl)morpholin-3-yl)methoxy)benzaldehyde]
[1]; 5 SCD subjects, after 15-week washout, vs. 23.02%
  average hematocrit after washout (returned to baseline levels): 23.46%
[1]; MAD-3 (150 mg QD) week 6, SCD patient 0001
  Hb levels: 12.9 g/dL
[1]; [3]
  Hb levels: 8.9 g/dL
  Hematocrit: 27.6%
[1]; [4]
  Hb levels: 13.6 g/dL
  Hematocrit: 37.8%
[1]; [5]
  Hb levels: 10.9 g/dL
  Hematocrit: 30.9%
[1]; SCD, 15-week washout after MAD-2
  decrease in mean hemoglobin after the last dose: 2.2 g/dL
[1]; SCD, baseline to end of week 8 of treatment
  mean increase in hematocrit from baseline: 6.5%
[1]; all six SCD subjects, 8 weeks (MAD-1 then MAD-2)
  hemolysis markers (reticulocytes, absolute reticulocytes, LDH, indirect bilirubin): improvements in hemolysis markers
[1]; [6]
  Hb increase at the end of the study (maximum): up to 1.3 g/dL
  Hb mean increase at the end of the study: 2.3 g/dL
[2]; [7]
  Number of SAEs: 0
  Number of TEAEs: 6
  Number of TEAEs grade ≥ 3: 0
  Number of TEAEs leading to study drug discontinuation: 0
  Number of drug-related TEAEs: 1
[2]; [8]
  Number of TEAEs: 24
  Number of TEAEs grade ≥ 3: 5
  Number of TEAEs leading to study drug discontinuation: 0
[2]; SCD N=6, single dose and multiple dose portions (Table 13A), 1 grade 2 headache, 2 grade 1 diarrhea
  Number of drug-related TEAEs: 3^a
[2]; SCD N=6, single dose and multiple dose portions (Table 13A), SAEs were grade 3 VOCs
  Number of SAEs: 2^b
[2]; SCD cohort, single dose portion and multiple ascending dose phases
  safety and tolerability: safe and well tolerated
[2]; [9]
  Number of SAEs: 3
  Number of TEAEs: 33
  Number of TEAEs grade ≥ 3: 7
  Number of TEAEs leading to study drug discontinuation: 0
  Number of drug-related TEAEs: 4
[2]; adults with SCD, daily maintenance doses of 150 mg
  tolerability: well tolerated
